Assay results reported in patent US20090220604A1, “AMINO ACIDS IN MICELLE PREPARATION” (ANGIOTECH INTERNATIONAL AG, priority 2002, published 2009).

Experiment: Recovery of paclitaxel added to mixtures after heating to 55° C. for 1 hour (reverse phase HPLC with UV detection)
Format: physicochemical
Experimental: The desirability of removing unreacted starting materials and/or acidic reaction by-products can be seen by reference to the data in Table 1. […] According to the data, when paclitaxel is combined with a diblock copolymer having up to 2% residual monomer and up to 0.2 μmol/mg acid content (expressed as the number of protons titrated in a solution prepared by dissolving 1 mg of diblock copolymer in water), after heating, only 95% of the paclitaxel initially added to the mixture could be recovered, as quantified using a reverse phase HPLC assay with UV detection and a taxane optimized C18 column.

- Paclitaxel recovered after heating (combined with diblock copolymer having up to 2% residual monomer and up to 0.2 μmol/mg acid content): 95%
- Paclitaxel recovered after heating (combined with methoxypolyethylene glycol, no measured acidic components and no DL-lactide monomer): 99%
- Paclitaxel recovered after heating (diblock copolymer with greatly reduced quantities of residual monomer and acidic components): 98%
Structure (SMILES): CC(=O)O[C@H]1C(=O)[C@@]2(C)[C@H]([C@H](OC(=O)c3ccccc3)[C@]3(O)C[C@H](OC(=O)[C@H](O)[C@@H](NC(=O)c4ccccc4)c4ccccc4)C(C)=C1C3(C)C)[C@]1(OC(C)=O)CO[C@@H]1C[C@@H]2O [paclitaxel]
